# Key:
# Format in all cases: cell-based
# ATF6 activation [1] = test: ATF6 activity reporter system (EGFPS-ATF6d and EGFPL expression vectors) in HEK293 cells, green fluorescence
# From the text: An EGFPS-ATF6d expression vector and an EGFPL expression vector were produced using a green fluorescent protein GFP as a reporter protein. An ATF6 activity reporter system having the two vectors was introduced into the following cell strains.
# The EGFPS-ATF6d expression vector and the EGFPL expression vector were introduced into HEK293 cells using a polyethylene imine method at an efficiency of not less than 90%. Through an electroporation method using NEON (electroporation device) (Invitrogen), the EGFPS-ATF6d expression vector and the EGFPL expression vector were introduced into MIN6 cells, HepG2 cells, 3T3-L1 cells, and L6 cells at an efficiency of not less than 80%, 60%, 90%, and 70%, respectively.
# In order to confirm that the ATF6 activity reporter system functions in an endoplasmic reticulum stress-dependent manner, the EGFPS-ATF6d expression vector and the EGFPL expression vector were coexpressed or individually expressed in HEK293 cells.
# In the cells in which the EGFPS-ATF6d expression vector and the EGFPL expression vector were coexpressed, green fluorescence was slightly observed. The cells were stimulated with 0.2 ug/ml tunicamycin, which is an endoplasmic reticulum stress inducer, and observed 6 hours after the stimulation.
# It is important that ATF6 activity reporter system is capable of detecting ATF6 activation in an endoplasmic reticulum stress-specific manner. Therefore, HEK293 cells in which the EGFPS-ATF6d expression vector and the EGFPL expression vector are coexpressed are stimulated by etoposide, which is a DNA replication inhibitor; thapsigargin, which is an endoplasmic reticulum stress inducer; and DTT, which is an endoplasmic reticulum stress inducer, in an amount of 100 uM, 0.2 uM, and 1 mM, respectively; and the presence of fluorescence was observed.
# HEK293 cells = test: Hoechst33258 staining for cell death of stimulated HEK293 cells; conditions: etoposide 100 uM, thapsigargin 0.2 uM, DTT 1 mM, after 36 hours
# MIN6 cells = test: Insulin secretion in pancreatic β-cell MIN6 cells (ELISA); conditions: thapsigargin 0.2 uM or DTT 1 M for 30 minutes, culture 36 hours, then KREBS buffer with 3 mM or 20 mM glucose for 1 hour
# Method: A control solution (DMSO), a thapsigargin solution (thapsigargin/DMSO solution), or a DTT solution (DTT/DMSO solution) was added to a culture solution (DMEM containing 10% fetal bovine serum) in which pancreatic p-cell MIN6 cells are cultured, and the culture solution was replaced with a general culture solution (DMEM containing 10% fetal bovine serum) after 30 minutes. Then, the culture was continued for 36 hours. The thapsigargin solution was added so that the thapsigargin concentration in the culture solution became 0.2 uM, and the DTT solution was added so that the DTT concentration in the culture solution became […]. Thereafter, the culture solution was replaced with a KREBS buffer solution containing 3 mM or 20 mM glucose, and the culture was continued for 1 hours. The concentration of insulin secreted in the culture solution was measured according to the ELISA method.
# ATF6 activation [2] = test: ATF6 activity reporter system in mouse fibroblasts modified by deleting Ire1α gene or PERK gene; conditions: 0.2 ug/ml tunicamycin, 6 hours
# Method: The endoplasmic reticulum stress response is known to be controlled by three individual pathways. It is important that the ATF6 activity reporter system enables detection of ATF6 activation with no influence of other pathways, such as Ire1 pathway or PERK pathway. In this connection, the EGFPS-ATF6d expression vector and the EGFPL expression vector were coexpressed in mouse fibroblasts modified by deleting Ire1α gene or PERK gene. The cells were observed 6 hours after stimulation with 0.2 ug/ml tunicamycin, which is an endoplasmic reticulum stress inducer.
# IRE1 pathway = test: Ire1 activation reporter (XBP1 splicing) in cell strains derived from different organs; conditions: 0.2 ug/ml tunicamycin, 6 hours
# From the text: (§1) The endoplasmic reticulum stress response is controlled by the three pathways, namely, Ire1 pathway, PERK pathway, and ATF6 pathway. Apart from the homeostasis of endoplasmic reticulum, they are also individually involved in control of organ-specific metabolism. Detection of the three endoplasmic reticulum stress response pathways is considered important to discover a drug targeting organ-specific endoplasmic reticulum stress response with fewer side effects. […] Med. (2004) 10 98-102, for measuring Ire1 pathway by XBP1 splicing, and a PERK activation reporter expression vector, disclosed in J Cell Biol. (2004) 167 27-33, for measuring PERK pathway by ATF4 translation were produced. An EGFPS-ATF6d expression vector, an EGFPL expression vector, the Ire1 activation reporter expression vector, and the PERK activation reporter expression vector were expressed in pancreatic β-cell strain MIN6 cells, hepatic cell strain HepG2 cells, adipose cell strain 3T3-L1 cells, and skeletal muscle cell strain L6 cells, respectively. The cells were observed 6 hours after the stimulation with 0.2 ug/ml tunicamycin, which is an endoplasmic reticulum stress inducer.
# ATF6 pathway = test: ATF6 activity reporter system in cell strains derived from different organs; conditions: HepG2, MIN6, L6, 3T3-L1 cells; 0.2 ug/ml tunicamycin, 6 hours
# From the text: as §1
# PERK pathway = test: PERK activation reporter (ATF4 translation) in cell strains derived from different organs; conditions: HepG2, MIN6, L6, 3T3-L1 cells; 0.2 ug/ml tunicamycin, 6 hours
# From the text: as §1
# [3] = HEK293 cells coexpressing both vectors, etoposide 100 uM, thapsigargin 0.2 uM, DTT 1 mM
compound,measurement,setting,value
"O[C@H](CS)[C@H](O)CS (racemic) [DTT, dithiothreitol]",green fluorescence,ATF6 activation [1]; [3],significant green fluorescence was observed
same,cell death (Hoechst33258 staining),HEK293 cells,severe enough to cause cell death after 36 hours
same,insulin secretion (concentration of insulin secreted in the culture solution),MIN6 cells,insulin secretion was suppressed
COc1cc([C@@H]2c3cc4c(cc3[C@@H](O[C@@H]3O[C@@H]5CO[C@@H](C)O[C@H]5[C@H](O)[C@H]3O)[C@H]3COC(=O)[C@H]23)OCO4)cc(OC)c1O [etoposide],green fluorescence,ATF6 activation [1]; [3],no green fluorescence was observed
same,cell death (Hoechst33258 staining),HEK293 cells,severe enough to cause cell death after 36 hours
C/C=C(/C)C(=O)O[C@H]1C(C)=C2[C@H]([C@@H]1OC(=O)CCCCCCC)[C@@](C)(OC(C)=O)C[C@H](OC(=O)CCC)[C@@]1(O)[C@H]2OC(=O)[C@@]1(C)O [thapsigargin],green fluorescence,ATF6 activation [1]; [3],significant green fluorescence was observed
same,cell death (Hoechst33258 staining),HEK293 cells,severe enough to cause cell death after 36 hours
same,insulin secretion (concentration of insulin secreted in the culture solution),MIN6 cells,insulin secretion was suppressed
tunicamycin,green fluorescence,"ATF6 activation [1]; 0.2 ug/ml tunicamycin, 6 hours after stimulation, HEK293 cells coexpressing EGFPS-ATF6d and EGFPL expression vectors",significant green fluorescence was observed
same,green fluorescence,"ATF6 activation [1]; 0.2 ug/ml tunicamycin, 6 hours after stimulation, HEK293 cells with EGFPS-ATF6d and EGFPL expression vectors individually expressed",no green fluorescence was observed
same,green fluorescence,ATF6 activation [2]; fibroblast modified by Ire1α gene deletion,significant green fluorescence was observed
same,green fluorescence,ATF6 activation [2]; fibroblast modified by PERK gene deletion,significant green fluorescence was observed
same,activation of IRE1 pathway (fluorescence intensity),IRE1 pathway; adipose cell strain 3T3-L1 cells,relatively low
same,activation of IRE1 pathway (fluorescence intensity),IRE1 pathway; hepatic cell strain HepG2 cells,relatively high
same,activation of IRE1 pathway (fluorescence intensity),IRE1 pathway; pancreatic β-cell strain MIN6 cells,relatively high
same,activation of IRE1 pathway (fluorescence intensity),IRE1 pathway; skeletal muscle cell strain L6 cells,relatively high
same,"intensity of activation of ATF6 pathway, order among cell strains",ATF6 pathway,"highest in hepatic cell strain HepG2 cells, followed by pancreatic β-cell strain MIN6 cells, skeletal muscle cell strain L6 cells, and adipose cell strain 3T3-L1 cells in descending order"
same,"degree of the activation of PERK pathway, order among cell strains",PERK pathway,"highest in hepatic cell strain HepG2 cells (pancreatic β-cell strain MIN6 cells and skeletal muscle cell strain L6 cells), followed by adipose cell strain 3T3-L1 cells"
